Marks after values point to notes of the source that are not given here. Where a SMILES comes first, the peptide text is derived from it. The star is where a group is joined. Myristoyl = CCCCCCCCCCCCCC(=O)*
Columns and labels:
[1] = Qualitative solubility of test peptides in 0.5 N saline; assay type: physicochemical; settings: pH 6.5, 20° C. (table title)
Method: Various test peptides (1 to 5 mg each) were weighed out accurately in individual 2 mL screw cap glass vials and aliquots of 25 μL of 0.5 N saline, pH 6.5, were added at 25° C. and ambient pressure. The solubility was evaluated visually. If the test peptide dissolves completely with the first aliquot of saline, its solubility was calculated and designated as more than the calculated amount. […] Similarly, if 1.7 mg of a test peptide fails to dissolve in 1.7 mL of 0.5 N saline, its solubility is stated as <1.0 mg/mL.

[2] = tested on: methacholine-induced mucin hypersecretion; assay: Methacholine-induced mucin hypersecretion in ovalbumin-sensitized mouse model of asthma, BAL mucin ELISA (Balb/C mice); assay type: in vivo; settings: peptides at 100 μM
Excerpt: Experiments were designed to test whether or not the MANS peptide and other test peptides related thereto inhibit hypersecretion of mucin in murine airway in vivo. The ovalbumin-sensitized mouse model of allergic inflammation and asthma used in these studies was as described by Singer et al. (2004), supra. As a negative control, a control peptide containing an N-terminal myristoyl group and the same amino acids as MANS peptide but arranged in random order (i.e., the random N-terminal sequence, RNS, myristoyl-peptide 232) was tested alongside the proposed active peptides. BP2 mice, aged 6-8 wks, were immunized subcutaneously twice at weekly intervals with 1 μg of ovalbumin. After 14 days of sensitization, the animals were exposed to aerosolized ovalbumin, which causes a pronounced goblet cell hyperplasia after 72 hours. At the 72 hr time point, the secretagogue, methacholine ([…]) was delivered using a Buxco system nebulizer providing a fine aerosol for 90 seconds. Fifteen min prior to the secretagogue challenge, 50 μL of the test peptide, at 3 different concentrations (10 μM, 100 μM, or 140 μM), was administered by intratracheal route. The RNS peptide was tested at the highest dose level only (50 μL of 140 μM solution). […] Each experiment was carried out in 6 mice per point, and each set of experiments was repeated 3 times. To test strain-to-strain variations, the above experiment was repeated in Balb/C mice under similar protocol. Both stimulated and unstimulated mucin secretion, in mice treated with […] sodium acetate (data not shown), were identical to saline control. Following the methacholine challenge, the animals were sacrificed and bronchoalveolar lavage (BAL) performed on 6 animals per group for analysis of secreted mucin.
Mice were sacrificed by cervical dislocation, followed by rapid exposure of the trachea and insertion of a cannula through a small incision. Bronchoalveolar lavage (BAL) fluid was collected with 0.5 ml followed by 3×1 ml PBS containing PMSF (5 mM), EDTA (5 mM), and DTT (5 mM). BAL fluid was separated into cell-free and cell fractions via brief centrifugation prior to any analyses being performed. The cell-free supernatants were analyzed for the presence of mucin via an ELISA method using anti-mucin antibodies shown to react with mouse mucin. Specifically, a mouse anti-MUC5AC antibody that recognizes the carbohydrate portion of secreted mucin was used in these assays. Data generated from each BAL sample were normalized to total protein as determined by Bradford assay. Mucin content was expressed as the value obtained with the anti-mucin antibody minus that obtained with the non-immune control antibody. All ELISA data were statistically examined using a one-way ANOVA.

[3] = Table II, 50 μL intratracheal 15 min before methacholine

Row | Compound | solubility [1] [mg/mL] | Mucin Secretion % control [2, 3] [% control] | Mucin Secretion % control ([2]; Table III)
1 | Ac-GAQFSKTAAA-OH [Ac-peptide 248] | > 100 | – | –
2 | Ac-AQFSKTAAKGE-NH2 [Ac-peptide 93-NH2] | > 90 | – | –
3 | CCCCCCCCCCCCCC(=O)NCC(=O)N[C@@H](CCCCN)C(=O)N[C@@H](CCC(N)=O)C(=O)N[C@@H](Cc1ccccc1)C(=O)N[C@@H](CO)C(=O)N[C@@H](CCCCN)C(=O)N[C@H](C(=O)N[C@@H](CCCCN)C(=O)N[C@@H](C)C(=O)N[C@@H](CCCCN)C(=O)NCC(=O)N[C@@H](CCC(=O)O)C(=O)O)[C@@H](C)O [myr-peptide 235] (Myristoyl-GKQFSKTKAKGE-OH) | > 60 | 13 | –
4 | Ac-KAATKSFQAG-OH [Ac-peptide 246, reference compound] | < 30 | – | –
5 | Ac-FSKTAAKGE-NH2 [Ac-peptide 124-NH2] | > 100 | – | –
6 | CCCCCCCCCCCCCC(=O)N[C@@H](C)C(=O)N[C@@H](CCCCN)C(=O)NCC(=O)N[C@@H](CCC(=O)O)C(=O)O [myr-peptide 219] (Myristoyl-AKGE-OH) | < 1 | – | –
7 | Ac-AAQFSKTAAK-OH [Ac-peptide 242] | > 100 | – | –
8 | Ac-SKTAAKGE-NH2 [Ac-peptide 141-NH2] | > 200 | – | –
9 | CCCCCCCCCCCCCC(=O)NCC(=O)N[C@@H](C)C(=O)N[C@@H](CCC(N)=O)C(=O)N[C@@H](C)C(=O)N[C@@H](CO)C(=O)N[C@@H](CCCCN)C(=O)N[C@H](C(=O)N[C@@H](C)C(=O)N[C@@H](C)C(=O)N[C@@H](CCCCN)C(=O)NCC(=O)N[C@@H](CCC(=O)O)C(=O)O)[C@@H](C)O [myr-peptide 237] (Myristoyl-GAQASKTAAKGE-OH) | < 1 | – | –
10 | CCCCCCCCCCCCCC(=O)N[C@@H](C)C(=O)N[C@@H](CCCCN)C(=O)NCC(=O)N[C@@H](CCC(=O)O)C(=O)N[C@@H](C)C(=O)N[C@@H](C)C(=O)N[C@@H](C)C(=O)N[C@@H](CCC(=O)O)C(=O)N[C@@H](CCCNC(=N)N)C(=O)N1CCC[C@H]1C(=O)NCC(=O)N[C@@H](CCC(=O)O)C(=O)N[C@@H](C)C(=O)N[C@@H](C)C(=O)N[C@H](C(=O)N[C@@H](C)C(=O)O)C(C)C [myr-peptide 45] (Myristoyl-AKGEAAAERPGEAAVA-OH) | > 80 | – | 35** % control
11 | Ac-GAQFSKTAAKGA-OH [Ac-peptide 241] | > 50 | – | –
12 | CCCCCCCCCCCCCC(=O)N[C@@H](CCCNC(=N)N)C(=O)N1CCC[C@H]1C(=O)NCC(=O)N[C@@H](CCC(=O)O)C(=O)N[C@@H](C)C(=O)N[C@@H](C)C(=O)N[C@H](C(=O)N[C@@H](C)C(=O)O)C(C)C [myr-peptide 153] (Myristoyl-RPGEAAVA-OH) | < 10 | – | 50 % control
13 | Ac-GAQFSATAAK-OH [Ac-peptide 245] | > 100 | – | –
14 | CCCCCCCCCCCCCC(=O)NCC(=O)N[C@@H](C)C(=O)N[C@@H](CCC(N)=O)C(=O)N[C@@H](Cc1ccccc1)C(=O)N[C@@H](CO)C(=O)N[C@@H](CCCCN)C(=O)N[C@H](C(=O)N[C@@H](C)C(=O)O)[C@@H](C)O [myr-peptide 137] (Myristoyl-GAQFSKTA-OH) | < 1 | 55 | –
15 | Ac-GAQFSKTAAKGEAAAERPGEAAVA-OH [Ac-peptide 1] | > 125 | – | –
16 | CCCCCCCCCCCCCC(=O)N[C@@H](C)C(=O)N[C@@H](C)C(=O)N[C@@H](C)C(=O)N[C@@H](CCC(=O)O)C(=O)N[C@@H](CCCNC(=N)N)C(=O)N1CCC[C@H]1C(=O)NCC(=O)N[C@@H](CCC(=O)O)C(=O)N[C@@H](C)C(=O)N[C@@H](C)C(=O)N[C@H](C(=O)N[C@@H](C)C(=O)O)C(C)C [myr-peptide 91] (Myristoyl-AAAERPGEAAVA-OH) | < 20 | – | 68 % control
17 | Ac-GAQFSKTA-OH [Ac-peptide 137] | > 200 | – | –
18 | CCCCCCCCCCCCCC(=O)NCC(=O)N[C@@H](C)C(=O)N[C@@H](CCC(N)=O)C(=O)N[C@@H](C)C(=O)N[C@@H](CO)C(=O)N[C@@H](CCCCN)C(=O)N[C@H](C(=O)N[C@@H](C)C(=O)N[C@@H](C)C(=O)N[C@@H](CCCCN)C(=O)NCC(=O)N[C@@H](CCC(=O)O)C(N)=O)[C@@H](C)O [myr-peptide 237-NH2] (Myristoyl-GAQASKTAAKGE-NH2) | < 1 | – | –
19 | Ac-GAQFSKTAAAGE-OH [Ac-peptide 239] | > 50 | – | –
20 | Ac-GAQASKTAAK-OH [Ac-peptide 236] | > 80 | – | –

Row | Compound | solubility [1] [mg/mL] | Mucin Secretion % control [2, 3] [% control] | Mucin Secretion % control ([2]; Table III)
21 | Ac-GKASQFAKTA-OH [Ac-peptide 252, reference compound] | < 30 | – | –
22 | CCCCCCCCCCCCCC(=O)NCC(=O)N[C@@H](C)C(=O)N[C@@H](CCC(N)=O)C(=O)N[C@@H](Cc1ccccc1)C(=O)N[C@@H](CO)C(=O)N[C@@H](CCCCN)C(=O)N[C@H](C(=O)N[C@@H](C)C(=O)N[C@@H](C)C(=O)N[C@@H](CCCCN)C(=O)NCC(=O)N[C@@H](CCC(=O)O)C(N)=O)[C@@H](C)O [myr-peptide 79-NH2] (Myristoyl-GAQFSKTAAKGE-NH2) | < 1 | – | –
23 | CCCCCCCCCCCCCC(=O)NCC(=O)N[C@@H](C)C(=O)N[C@@H](CCC(N)=O)C(=O)N[C@@H](Cc1ccccc1)C(=O)N[C@@H](CO)C(=O)N[C@@H](CCCCN)C(=O)N[C@H](C(=O)N[C@@H](C)C(=O)N[C@@H](C)C(=O)N[C@@H](CCCCN)C(=O)NCC(=O)N[C@@H](CCC(=O)O)C(=O)N[C@@H](C)C(=O)N[C@@H](C)C(=O)N[C@@H](C)C(=O)N[C@@H](CCC(=O)O)C(=O)N[C@@H](CCCNC(=N)N)C(=O)N1CCC[C@H]1C(=O)NCC(=O)N[C@@H](CCC(=O)O)C(=O)O)[C@@H](C)O [myr-peptide 11] (Myristoyl-GAQFSKTAAKGEAAAERPGE-OH) | > 2 | – | 54 % control
24 | Ac-GAQFSKAAAK-OH [Ac-peptide 247] | > 100 | – | –
25 | Ac-GAQFAKTAAK-OH [Ac-peptide 244] | > 120 | – | –
26 | CCCCCCCCCCCCCC(=O)N[C@H](C(=O)N[C@@H](C)C(=O)N[C@@H](C)C(=O)N[C@@H](CCCCN)C(=O)NCC(=O)N[C@@H](CCC(=O)O)C(=O)N[C@@H](C)C(=O)N[C@@H](C)C(=O)O)[C@@H](C)O [myr-peptide 143] (Myristoyl-TAAKGEAA-OH) | < 1 | – | –
27 | Ac-AAKGEA-OH [Ac-peptide 179] | > 150 | – | –
28 | Ac-TAAKGEAA-OH [Ac-peptide 143] | > 230 | – | –
29 | CCCCCCCCCCCCCC(=O)N[C@@H](C)C(=O)N[C@@H](C)C(=O)N[C@@H](CCCCN)C(=O)NCC(=O)N[C@@H](CCC(=O)O)C(=O)N[C@@H](C)C(=O)O [myr-peptide 179] (Myristoyl-AAKGEA-OH) | < 1 | – | –
30 | Ac-GAQFSKTAAKGE-OH [Ac-peptide 79] | > 100 | – | –
31 | Ac-KTAAKGE-NH2 [Ac-peptide 159-NH2] | > 200 | – | –
32 | Ac-GAQFSKTAA-OH [Ac-peptide 121] | > 20 | – | –
33 | Ac-GAAFSKTAAK-OH [Ac-peptide 243] | > 50 | – | –
34 | CCCCCCCCCCCCCC(=O)NCC(=O)N[C@@H](C)C(=O)N[C@@H](CCC(N)=O)C(=O)N[C@@H](Cc1ccccc1)C(=O)N[C@@H](CO)C(=O)N[C@@H](CCCCN)C(=O)N[C@H](C(=O)N[C@@H](C)C(=O)N[C@@H](C)C(=O)O)[C@@H](C)O [myr-peptide 121] (Myristoyl-GAQFSKTAA-OH) | < 1 | – | –
35 | Ac-QFSKTAAKGE-NH2 [Ac-peptide 108-NH2] | > 150 | – | –
36 | Ac-GAQFSATAAA-OH [Ac-peptide 249] | < 1 | – | –
37 | CCCCCCCCCCCCCC(=O)NCC(=O)N[C@@H](C)C(=O)N[C@@H](CCC(=O)O)C(=O)N[C@@H](Cc1ccccc1)C(=O)N[C@@H](CO)C(=O)N[C@@H](CCCCN)C(=O)N[C@H](C(=O)N[C@@H](C)C(=O)N[C@@H](C)C(=O)N[C@@H](CCCCN)C(=O)NCC(=O)N[C@@H](CCC(=O)O)C(=O)O)[C@@H](C)O [myr-peptide 238] (Myristoyl-GAEFSKTAAKGE-OH) | > 2 | – | –
38 | CCCCCCCCCCCCCC(=O)NCC(=O)N[C@@H](C)C(=O)N[C@@H](CCC(N)=O)C(=O)N[C@@H](Cc1ccccc1)C(=O)N[C@@H](CO)C(=O)N[C@@H](CCCCN)C(=O)N[C@H](C(=O)N[C@@H](C)C(N)=O)[C@@H](C)O [myr-peptide 137-NH2] (Myristoyl-GAQFSKTA-NH2) | – | 56 | –
39 | CC(=O)N[C@@H](C)C(=O)N[C@@H](CCCCN)C(=O)NCC(=O)N[C@@H](CCC(=O)O)C(N)=O [Ac-peptide 219-NH2] (Ac-AKGE-NH2) | > 200 | – | –

— US9598463B2, “Mucin hypersecretion inhibitors and methods of use” (BIOMARCK PHARMACEUTICALS, LTD., priority 2005, dated 2017)
